Measurements reported in ChEMBL document CHEMBL3046948, “Synthesis and SAR investigation of natural phenylpropene-derived methoxylated cinnamaldehydes and their novel Schiff bases as potent antimicrobial and antioxidant agents” (2013).
Converted amounts (≈) assume the structure as drawn. The source made the active and inactive calls. The rule behind the calls is not given here.

Key:
Type in all cases: functional
[1] = system: Aspergillus sydowii; assay: Antimicrobial activity against Aspergillus sydowii MTCC 4335 assessed as growth inhibition after 5 days by broth microdilution method
[2] = system: Aspergillus parasiticus; assay: Antimicrobial activity against Aspergillus parasiticus MTCC 2797 assessed as growth inhibition after 5 days by broth microdilution method
[3] = system: Aspergillus niger; assay: Antimicrobial activity against Aspergillus niger MTCC 404 assessed as growth inhibition after 5 days by broth microdilution method
[4] = system: Pichia kudriavzevii; assay: Antimicrobial activity against Pichia kudriavzevii MTCC 231 assessed as growth inhibition after 24 hr by broth microdilution method
[5] = system: Candida albicans; assay: Antimicrobial activity against Candida albicans MTCC 3017 assessed as growth inhibition after 24 hr by broth microdilution method
[6] = system: Enterobacter cloacae; assay: Antimicrobial activity against Enterobacter cloacae MTCC 509 assessed as growth inhibition after 24 hr by broth microdilution method
[7] = system: Pseudomonas aeruginosa; assay: Antimicrobial activity against Pseudomonas aeruginosa MTCC 424 assessed as growth inhibition after 24 hr by broth microdilution method
[8] = system: Klebsiella pneumoniae; assay: Antimicrobial activity against Klebsiella pneumoniae MTCC 109 assessed as growth inhibition after 24 hr by broth microdilution method
[9] = system: Escherichia coli; assay: Antimicrobial activity against Escherichia coli MTCC 43 assessed as growth inhibition after 24 hr by broth microdilution method
[10] = system: Burkholderia cepacia; assay: Antimicrobial activity against Burkholderia cepacia MTCC 438 assessed as growth inhibition after 24 hr by broth microdilution method
[11] = system: Micrococcus luteus; assay: Antimicrobial activity against Micrococcus luteus MTCC 2470 assessed as growth inhibition after 24 hr by broth microdilution method
[12] = system: Bacillus subtilis; assay: Antimicrobial activity against Bacillus subtilis MTCC 121 assessed as growth inhibition after 24 hr by broth microdilution method
[13] = system: Staphylococcus aureus; assay: Antimicrobial activity against Staphylococcus aureus MTCC 3160 assessed as growth inhibition after 24 hr by broth microdilution method
[14] = system: Radical scavenging activity; assay: Antioxidant activity assessed as inhibition of DPPH radical formation at 2 mg/ml after 30 min by spectrophotometric analysis
[15] = system: Trichophyton rubrum; assay: Antimicrobial activity against Trichophyton rubrum MTCC 296 assessed as growth inhibition after 5 days by broth microdilution method

Row | Compound | MIC [1] | MIC [2] | MIC [3] | MIC ([4]; MTCC 231, 24 h) [µM] | MIC ([5]; MTCC 3017, 24 h) [µM] | MIC ([6]; MTCC 509, 24 h) [µM] | MIC [7] | MIC [8] | MIC ([10]; MTCC 438, 24 h) [µM] | MIC ([11]; MTCC 2470, 24 h) [µM] | MIC ([12]; MTCC 121, 24 h) [µM] | MIC ([13]; MTCC 3160, 24 h) [µM] | inhibition [14] [%] | MIC ([15]; MTCC 296, 120 h) [µM] | MIC ([1]; MTCC 4335, 120 h) [µM] | MIC ([2]; MTCC 2797, 120 h) [µM] | MIC ([3]; MTCC 404, 120 h) [µM] | MIC ([8]; MTCC 109, 24 h) [µM] | MIC ([9]; MTCC 43, 24 h) [µM] | MIC ([7]; MTCC 424, 24 h) [µM] | other results
1 | Cc1ccc2nc(/N=C/C=C/c3ccc4c(c3)OCO4)sc2c1 | inactive | inactive | inactive | 770 (≈ 248 µg/mL) | 770 (≈ 248 µg/mL) | 770 (≈ 248 µg/mL) | inactive | inactive | 770 (≈ 248 µg/mL) | 770 (≈ 248 µg/mL) | 770 (≈ 248 µg/mL) | 380 (≈ 123 µg/mL) | 3.19 | 770 (≈ 248 µg/mL) |  |  |  |  |  |  | MIC [9]: inactive
2 | NC(=S)N/N=C/C=C/c1ccc2c(c1)OCO2 | inactive | inactive | inactive |  |  |  | inactive | inactive |  |  |  |  | 10.7 |  |  |  |  |  |  |  | MIC [4]: inactive; MIC [5]: inactive; MIC [6]: inactive; MIC [9]: inactive; MIC [10]: inactive; MIC [11]: inactive; MIC [12]: inactive; MIC [13]: inactive; MIC [15]: inactive
3 | C(=C\c1ccc2c(c1)OCO2)/C=N/c1nccs1 |  |  |  | 970 (≈ 251 µg/mL) | 970 (≈ 251 µg/mL) | 480 (≈ 124 µg/mL) | inactive |  | 1930 (≈ 499 µg/mL) | 970 (≈ 251 µg/mL) | 120 (≈ 31 µg/mL) | 480 (≈ 124 µg/mL) | 3.91 | 970 (≈ 251 µg/mL) | 1930 (≈ 499 µg/mL) | 3870 (≈ 1000 µg/mL) | 3870 (≈ 1000 µg/mL) | 970 (≈ 251 µg/mL) | 970 (≈ 251 µg/mL) |  | 
4 | C(=C\c1nc2ccccc2[nH]1)/c1ccc2c(c1)OCO2 |  |  |  | 470 (≈ 124 µg/mL) | 470 (≈ 124 µg/mL) | 950 (≈ 251 µg/mL) |  |  | 470 (≈ 124 µg/mL) | 1900 (≈ 502 µg/mL) | 3780 (≈ 999 µg/mL) | 1900 (≈ 502 µg/mL) | 32.6 | 470 (≈ 124 µg/mL) | 1900 (≈ 502 µg/mL) | 1900 (≈ 502 µg/mL) | 950 (≈ 251 µg/mL) | 1900 (≈ 502 µg/mL) | 1900 (≈ 502 µg/mL) | 10 (≈ 2.64 µg/mL) | 
5 | C(=C\c1ccc2c(c1)OCO2)/C=N/c1nc2ccccc2s1 | inactive | inactive | inactive | 1620 (≈ 500 µg/mL) | 810 (≈ 250 µg/mL) | 810 (≈ 250 µg/mL) |  |  | 810 (≈ 250 µg/mL) | 200 (≈ 61.7 µg/mL) | 400 (≈ 123 µg/mL) | 200 (≈ 61.7 µg/mL) | 3.55 | 810 (≈ 250 µg/mL) |  |  |  | 810 (≈ 250 µg/mL) | 810 (≈ 250 µg/mL) | 810 (≈ 250 µg/mL) | 
6 | COc1cc(OC)c(OC)cc1/C=C/C=O |  | inactive | inactive | 8990 (≈ 2000 µg/mL) | 8990 (≈ 2000 µg/mL) |  | inactive | inactive |  | 2250 (≈ 500 µg/mL) |  |  |  | 8990 (≈ 2000 µg/mL) | 4500 (≈ 1000 µg/mL) |  |  |  |  |  | MIC [6]: inactive; MIC [9]: inactive; MIC [10]: inactive; MIC [12]: inactive; MIC [13]: inactive
7 | O=Cc1ccc2c(c1)OCO2 [PIPERONAL] |  |  |  | 830 (≈ 125 µg/mL) | 830 (≈ 125 µg/mL) | 3330 (≈ 500 µg/mL) |  |  |  | 3330 (≈ 500 µg/mL) | 6660 (≈ 1000 µg/mL) | 3330 (≈ 500 µg/mL) |  | 830 (≈ 125 µg/mL) | 3330 (≈ 500 µg/mL) | 3330 (≈ 500 µg/mL) | 3330 (≈ 500 µg/mL) | 3330 (≈ 500 µg/mL) | 3330 (≈ 500 µg/mL) | 830 (≈ 125 µg/mL) | MIC [10]: inactive
8 | O=CCCc1ccccc1 [DIHYDROCINNAMALDEHYDE] |  |  |  | 3720 (≈ 499 µg/mL) | 3720 (≈ 499 µg/mL) | 7450 (≈ 1000 µg/mL) |  |  | 14900 (≈ 2000 µg/mL) | 7450 (≈ 1000 µg/mL) | 7450 (≈ 1000 µg/mL) | 14900 (≈ 2000 µg/mL) |  | 3720 (≈ 499 µg/mL) | 3720 (≈ 499 µg/mL) | 14900 (≈ 2000 µg/mL) | 7450 (≈ 1000 µg/mL) | 7450 (≈ 1000 µg/mL) | 7450 (≈ 1000 µg/mL) | 7450 (≈ 1000 µg/mL) | 
